Measurements reported in ChEMBL document CHEMBL4219094, “Synthesis and evaluation of substituted 4-arylimino-3-hydroxybutanoic acids as potential HIV-1 integrase inhibitors” (Bioorg Med Chem Lett, 2018).

How the values were obtained:
[1] = target: Human immunodeficiency virus type 1 integrase (Human immunodeficiency virus 1, UniProt Q7ZJM1); assay: Inhibition of HIV-1 subtype C integrase in presence of biotinylated DNA by colorimetric analysis
[2] = Cytotoxicity against HEK293 cells after 48 hrs by resazurin dye-based fluorescence assay; format: cell-based; details: human
HEK293 = assay: Cytotoxicity against HEK293 cells at 100 uM after 48 hrs by resorufin dye-based fluorescence assay relative to control; format: cell-based; details: human, hek293, 48 h

Sequence of Human immunodeficiency virus type 1 integrase (Q7ZJM1 whole entry): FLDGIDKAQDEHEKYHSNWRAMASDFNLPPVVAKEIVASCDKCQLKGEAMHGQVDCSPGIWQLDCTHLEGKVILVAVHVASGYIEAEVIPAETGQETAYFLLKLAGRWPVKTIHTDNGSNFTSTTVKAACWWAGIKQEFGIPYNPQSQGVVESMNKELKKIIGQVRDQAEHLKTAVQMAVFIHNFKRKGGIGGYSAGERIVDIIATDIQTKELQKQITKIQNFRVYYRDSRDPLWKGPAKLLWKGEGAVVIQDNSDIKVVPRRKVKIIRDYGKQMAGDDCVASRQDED

Compound | IC50 [1] [µM] | CC50 at 48 h [2] [µM] | Activity (HEK293)
O=C(O)CC(O)/C=N/c1cc(Cl)cc(Cl)c1O (configuration not stated) | > 100 | 101 | –
O=C(O)CC(O)/C=N/c1cc(Cl)cc(Br)c1O (configuration not stated) | > 100 | 109 | –
O=C(O)CC(O)/C=N/c1ccccc1O (configuration not stated) | > 100 | – | Non-Toxic
CC[C@H]1CN2CCc3cc(OC)c(OC)cc3[C@@H]2C[C@@H]1C[C@H]1NCCc2cc(OC)c(OC)cc21 [EMETINE] | – | 0.071 | –

Continued, in another order:

IC50 [1] [µM] | Compound | CC50 at 48 h [2] [µM] | Activity (HEK293)
38.7 | O=C(O)CC(O)/C=N/c1ccc(O)c(O)c1 (configuration not stated) | – | Non-Toxic
3.52 | O=C(O)CC(O)/C=N/c1ccc(O)c(O)c1O (configuration not stated) | – | Non-Toxic
65.1 | O=C(O)CC(O)/C=N/c1cc([N+](=O)[O-])ccc1O (configuration not stated) | – | Non-Toxic
53.2 | O=C(O)CC(O)/C=N/c1cccc(O)c1O (configuration not stated) | – | Non-Toxic
26.4 | O=C(O)CC(O)/C=N/c1cc(Br)cc(Br)c1O (configuration not stated) | 104 | –
